“And” between values parts separate entries of the source, which are not always exact repeats. Identical values can stand only once.
How the values were obtained:
[1] = tested on: LPS-induced TNF production; parameters: species or system C57BL/6 mice; conditions: mouse, iv
guinea pig macrophages = assay: cells; assay type: cell-based, Hartley-White guinea pig; conditions: for inhibition of LPS-induced TNF production: guinea pig macrophages, LPS 10 ng/ml, in words
mouse macrophages = assay: cells; assay type: cell-based, C57BL/6 mouse; conditions: for inhibition of LPS-induced TNF production: mouse macrophages, LPS 10 ng/ml, in words
[2] = tested on: LPS-induced TNF production; assay: In vivo inhibition of LPS-induced TNF production in guinea pigs; conditions: optimum ED50's
HIV LTR = assay: Suppression of LPS-stimulated HIV LTR activation in stably transfected U938 cell line (HIV-1 LTR-CAT); conditions: Human immunodeficiency virus 1, 24 h, read-out: IC50 for suppression of LPS-stimulated HIV LTR activation
Procedure: Experiments were carried out using one such stably-transfected cell line, i.e., the U938 cell line of Latham et al. (Cell. Immunol. 129:513, 1990). Cells were cultured as described in Latham et al. (1990, supra), and 10^6 cells were treated with a lipid A analog (at a concentration of between 0.0 and 1.0 μM). Thirty minutes after addition of the analog, cells were treated with phorbol myristate acetate (at a concentration of 0.33 ng/ml; described above) and E. coli 0111:B4 LPS (at a concentration of 33 ng/ml; described above). Cells were cultured for an additional 24 hours, harvested, and assayed for CAT activity as described above.

human monocytes = assay: In vitro inhibition of LPS-induced TNF production in human monocytes (ELISA); assay type: cell-based; conditions: Monocyte, E. coli 0111:B4 LPS 10 ng/ml, 3 h, read-out: ED50 for inhibition of LPS-induced production of TNF
Procedure: Both bacterial LPS and bacterial lipid A elicit production of tumor necrosis factor (TNF) and IL-1β in cultured human monocytes (J. Immunol. 139:429, 1987).
Monocytes were isolated from human blood by Percoll density gradient centrifugation, plated at approximately 1×10^6 cells/well on a 48-well plate in RPMI 1640 medium (GIBCO, Grand Island, N.Y.) containing 10% human serum (Sigma Chemical Co., St. Louis, Mo.) and incubated for two to three hours. Bacterial LPS (i.e., from E. coli 0111:B4; Sigma Chemicals, St. Louis, Mo.) at 10 ng/ml or lipid A (Daiichi Chemicals, Tokyo, Japan) at 1.0 ng/ml in RPMI 1640 medium were combined with 0.45 ml of RPMI 1640 medium containing 1% human serum and added to the cultured monocytes. In experiments involving a lipid A analog, the analog was added immediately before addition of LPS or lipid A in varying concentrations (e.g., between 0 and 100 μM in a 50 μl aliquot). Following a three-hour incubation period, a 0.1 ml aliquot of the culture supernatant was assayed for the presence of TNF and IL-1β. TNF and IL-1β were assayed using the ELISA assay of R & D Systems (Minneapolis, Minn.) and the instructions of the manufacturer, however, any other standard ELISA kits may be utilized, for example, the kit available from Genzyme, Cambridge, Mass. Experiments were performed in triplicate.

Structure (SMILES) | inhibition of TNF production in vivo [1] | inhibition of LPS-induced TNF production (guinea pig macrophages) | inhibition of LPS-induced TNF production (mouse macrophages) | further results
CCCCCC/C=C\CCCC(=O)O[C@H](CCCCCCC)CC(=O)O[C@@H]1[C@@H](NC(=O)CC(=O)CCCCCCCCCCC)[C@H](OC[C@H]2O[C@H](OP(=O)(O)O)[C@H](NC(=O)CC(=O)CCCCCCCCCCC)[C@@H](OC(=O)C[C@H](O)CCCCCCC)[C@@H]2O)O[C@H](CO)[C@H]1OP(=O)(O)O [Analog B214-31] | inhibited TNF production |  |  | 
CCCCCC/C=C\CCCC(=O)O[C@H](CCCCCCC)CC(=O)O[C@@H]1[C@@H](NC(=O)CC(=O)CCCCCCCCCCC)[C@H](OC[C@H]2O[C@H](OP(=O)(O)O)[C@H](NC(=O)CC(=O)CCCCCCCCCCC)[C@@H](OC(=O)C[C@H](O)CCCCCCC)[C@@H]2O)O[C@H](CO)[C@H]1OP(=O)(O)O [Analog B214-32] | inhibited TNF production | inhibited LPS-induced TNF production | inhibited LPS-induced TNF production | optimum ED50 for inhibition of LPS-induced TNF production in vivo [2]: 7.5 μg/guinea pig and 5 μg/guinea pig
CCCCCC/C=C\CCCC(=O)O[C@H](CCCCCCC)CC(=O)O[C@@H]1[C@@H](NC(=O)CC(=O)CCCCCCCCCCC)[C@H](OC[C@H]2O[C@H](OP(=O)(O)O)[C@H](NC(=O)CC(=O)CCCCCCCCCCC)[C@@H](OC(=O)C[C@H](O)CCCCCCC)[C@@H]2O)O[C@H](CO)[C@H]1OP(=O)(O)O [Analog B214-33] | inhibited TNF production |  |  | 
CCCCCC/C=C\CCCC(=O)O[C@H](CCCCCCC)CC(=O)O[C@@H]1[C@@H](NC(=O)CC(=O)CCCCCCCCCCC)[C@H](OC[C@H]2O[C@H](OP(=O)(O)O)[C@H](NC(=O)C[C@H](O)CCCCCCCCCCC)[C@@H](OC(=O)C[C@H](O)CCCCCCC)[C@@H]2O)O[C@H](CO)[C@H]1OP(=O)(O)O [Analog B218-32] | inhibited TNF production |  |  | 
CCCCCC/C=C\CCCC(=O)O[C@H](CCCCCCC)CC(=O)O[C@@H]1[C@@H](NC(=O)/C=C/CCCCCCCCCCC)[C@H](OC[C@H]2O[C@H](OP(=O)(O)O)[C@H](NC(=O)/C=C/CCCCCCCCCCC)[C@@H](OC(=O)C[C@H](O)CCCCCCC)[C@@H]2O)O[C@H](CO)[C@H]1OP(=O)(O)O [Analog B286-32] | inhibited TNF production |  |  | 
CCCCCC/C=C\CCCCO[C@H](CCCCCCC)CC(=O)O[C@@H]1[C@@H](NC(=O)CC(=O)CCCCCCCCCCC)[C@H](OC[C@H]2O[C@H](OP(=O)(O)O)[C@H](NC(=O)CC(=O)CCCCCCCCCCC)[C@@H](OC(=O)C[C@H](O)CCCCCCC)[C@@H]2O)O[C@H](CO)[C@H]1OP(=O)(O)O [Analog B294-32] | inhibited TNF production |  |  | 
CCCCCC/C=C\CCCC(=O)O[C@H](CCCCCCC)CC(=O)O[C@@H]1[C@@H](NC(=O)CC(=O)CCCCCCCCCCC)[C@H](OC[C@H]2O[C@H](OP(=O)(O)O)[C@H](NC(=O)/C=C/CCCCCCCCCCC)[C@@H](OC(=O)C[C@H](O)CCCCCCC)[C@@H]2O)O[C@H](CO)[C@H]1OP(=O)(O)O [Analog B313-32] | inhibited TNF production |  |  | 
CCCCCC/C=C\CCNC(=O)O[C@H](CCCCCCC)CC(=O)O[C@@H]1[C@@H](NC(=O)CC(=O)CCCCCCCCCCC)[C@H](OC[C@H]2O[C@H](OP(=O)(O)O)[C@H](NC(=O)CC(=O)CCCCCCCCCCC)[C@@H](OC(=O)C[C@H](O)CCCCCCC)[C@@H]2O)O[C@H](CO)[C@H]1OP(=O)(O)O [Analog B379-32] | inhibited TNF production |  |  | 
CCCCCCC/C=C/C(=O)O[C@@H]1[C@@H](NC(=O)CC(=O)CCCCCCCCCCC)[C@H](OC[C@H]2O[C@H](OP(=O)(O)O)[C@H](NC(=O)CC(=O)CCCCCCCCCCC)[C@@H](OC(=O)C[C@H](O)CCCCCCC)[C@@H]2O)O[C@H](CO)[C@H]1OP(=O)(O)O [Analog B400-32] | inhibited TNF production |  |  | IC50 (HIV LTR): 15 to 260 nM
CCCCCC/C=C\CCCC(=O)O[C@H](CCCCCCC)CC(=O)O[C@@H]1[C@@H](NC(=O)CC(=O)CCCCCCCCCCC)[C@H](OC[C@H]2O[C@H](OP(=O)(O)O)[C@H](NC(=O)CC(=O)CCCCCCCCCCC)[C@@H](OCC[C@H](O)CCCCCCC)[C@@H]2O)O[C@H](CO)[C@H]1OP(=O)(O)O [Analog B410-32] | inhibited TNF production | inhibited LPS-induced TNF production | inhibited LPS-induced TNF production | 
CCCCCC/C=C\CCCC(=O)O[C@H](CCCCCCC)CC(=O)O[C@@H]1[C@@H](NC(=O)CS(=O)(=O)CCCCCCCCCCC)[C@H](OC[C@H]2O[C@H](OP(=O)(O)O)[C@H](NC(=O)CS(=O)(=O)CCCCCCCCCCC)[C@@H](OC(=O)C[C@H](O)CCCCCCC)[C@@H]2O)O[C@H](CO)[C@H]1OP(=O)(O)O [Analog B425-32] | inhibited TNF production |  |  | 
CCCCCC/C=C\CCCC(=O)O[C@H](CCCCCCC)CC(=O)O[C@@H]1[C@@H](NC(=O)CC(=O)CCCCCCCCCCC)[C@@H](OC[C@H]2O[C@H](OP(=O)(O)O)[C@H](NC(=O)CC(=O)CCCCCCCCCCC)[C@@H](OC(=O)C[C@H](O)CCCCCCC)[C@@H]2O)O[C@H](CO)[C@H]1OP(=O)(O)O [Analog B426-32] | inhibited TNF production |  |  | 
CCCCCC/C=C\CCCC(=O)O[C@H](CCCCCCC)CCO[C@@H]1[C@@H](NC(=O)CC(=O)CCCCCCCCCCC)[C@H](OC[C@H]2O[C@H](OP(=O)(O)O)[C@H](NC(=O)CC(=O)CCCCCCCCCCC)[C@@H](OCC[C@H](O)CCCCCCC)[C@@H]2O)O[C@H](CO)[C@H]1OP(=O)(O)O [Analog B427-32] |  | inhibited LPS-induced TNF production | inhibited LPS-induced TNF production | IC50 (HIV LTR): 15 to 260 nM
CCCCCC/C=C\CCCC(=O)O[C@H](CCCCCCC)CCO[C@@H]1[C@@H](NC(=O)C[S+]([O-])CCCCCCCCCCC)[C@H](OC[C@H]2O[C@H](OP(=O)(O)O)[C@H](NC(=O)C[S+]([O-])CCCCCCCCCCC)[C@@H](OCC[C@H](O)CCCCCCC)[C@@H]2O)O[C@H](CO)[C@H]1OP(=O)(O)O (stereo partly shown) [Analog B459-32] |  | inhibited LPS-induced TNF production | inhibited LPS-induced TNF production | 
CCCCCC/C=C\CCCC(=O)O[C@H](CCCCCCCC)CCO[C@@H]1[C@@H](NC(=O)CC(=O)CCCCCCCCCCC)[C@H](OC[C@H]2O[C@H](OP(=O)(O)O)[C@H](NC(=O)CC(=O)CCCCCCCCCCC)[C@@H](OCC[C@H](O)CCCCCCCC)[C@@H]2O)O[C@H](COC)[C@H]1OP(=O)(O)O [Analog B464-32] |  | inhibited LPS-induced TNF production | inhibited LPS-induced TNF production | 
CCCCCC/C=C\CCCC(=O)O[C@H](CCCCCCC)CCO[C@@H]1[C@@H](NC(=O)CC(=O)CCCCCCCCCCC)[C@H](OC[C@H]2O[C@H](OP(=O)(O)O)[C@H](NC(=O)CC(=O)CCCCCCCCCCC)[C@@H](OCC[C@H](O)CCCCCCC)[C@@H]2O)O[C@H](COC)[C@H]1OP(=O)(O)O [Analog B531-35] |  |  |  | IC50 (human monocytes): ~0.02 nM; IC50 (guinea pig macrophages; Cavia porcellus, Macrophage, 3 h, read-out: ED50 for inhibition of LPS-induced TNF production): 0.66 nM; IC50 (mouse macrophages; Mus musculus, Macrophage, 3 h, read-out: ED50 for inhibition of LPS-induced TNF production): 2.26 nM; ED50 for inhibition of TNF production in vivo [1]: 16.2 μg/mouse
CCCCCC/C=C\CCCC(=O)O[C@H](CCCCCCC)CCO[C@@H]1[C@@H](NC(=O)CC(=O)CCCCCCCCCCC)[C@H](OC[C@H]2O[C@H](OP(=O)(O)O)[C@H](NC(=O)CC(=O)CCCCCCCCCCC)[C@@H](OCC[C@H](O)CCCCCCC)[C@@H]2OC(C)=O)O[C@H](COC)[C@H]1OP(=O)(O)O [Analog B718-35] |  | inhibited LPS-induced TNF production | inhibited LPS-induced TNF production | 

— patent publication US5612476A, “Anti-endotoxin compounds” (priority 1995, dated 1997)
